Measurements reported in US6387907B1, “Use of serotonin agonists to alleviate disordered breathing episodes in a mammal” (The Trustees of the University of Pennsylvania, priority 1997, dated 2002).

Legend:
Type in all cases: in vivo, English bulldog
[1] = system: English bulldogs; assay: Respiratory timing from DIA moving average signals
Text: Respiratory timing variables were obtained from the DIA MA signals, using methods previously described to determine inspiratory time (T1), expiratory time (TE), total time of a respiratory burst (Ttot), and the duty cycle ratio (T1/Ttot) (Hendricks et al., 1987, J. Appl. Physiol. 63:1344-1350; Hendricks et al., 1991, Am Rev. Respir. Dis. 144:1112-1120).

[2] = system: English bulldogs; assay: Cine CT imaging of the upper airway before and after ritanserin; conditions: 0.5 mg/kg i.v.
Protocol: The effect of administering a serotonin antagonist on upper airway dimensions during a respiratory cycle was determined by performing cinematic computed tomography (cine CT) on dogs before and after administration of the antagonists. Cine CT allows both high spatial and temporal resolution (Shepard et al., 1990, In: Proceedings of the First International Symposium on Sleep and Respiration, New York, 273-282; Schwab et al., 1993, Am. Rev. Respir. Dis. 148:1385-1400), and has been used to define dynamic changes in the upper airways of humans in relation to the phases of the respiratory cycle (Schwab et al., 1993, Am. Rev. Respir. Dis. 148:1385-1400; Galvin et al., 1989, Radiology 171:775-778; Schwab et al., 1993, J. Appl. Physiol. 74:1504-1514). An Imatron C-100 ultrafast scanner (Imatron Inc., South San Francisco, Calif.) was used for these studies.
Dogs were studied during wakefulness. All dogs were trained prior to the study to lie quietly on a table similar to the CT scanner table for periods as long as one hour. However, to maintain constant head and body position throughout the study, each dog wore a nylon vest secured to the table at the shoulder and hips. Lateral radiographs of the neck were performed initially so that the head and neck were positioned with a 110 to 130 degree angle between the hard palate and the upper trachea.
Once the angle was confirmed, the head was gently secured in place to the scanner table with elastic dressing tape. With the dog comfortably secured in place, a scout filming of the airways was performed with 40 consecutive 3-millimeter-thick coronal slices imaged from the region of the nasopharynx through the larynx. For each dog, these images were used to select four standard areas of study for all dogs. […] For each dog, the areas which were imaged included the posterior nasopharynx (at the level of pterygoid fossa in the dog), the retropalatal high area (at the midhyoid arch level), the retropalatal low area (at the level of the anterior hyoid bone), and the larynx.
Prior to imaging, each dog was connected as described above for monitoring geniohyoid, sternohyoid, and diaphragm muscle activity, respiratory inductive plethysmography, and oxyhemoglobin saturation. During quiet breathing, 20 consecutive images at 0.4-second intervals were obtained simultaneously at each of the four described levels. This program allowed for the description of the dynamic changes in airway dimensions over four to seven breaths at all four anatomic levels simultaneously. The image acquisition time for each radiograph was 50 milliseconds, and images were 3 millimeters thick. Imaging studies were rejected and repeated if the respiratory activity was interrupted at any time during imaging by swallowing, sighing (defined for this study as a diaphragm burst 200% greater in amplitude than the previous 10 bursts), licking, or panting, the latter being defined as a respiratory frequency of more than 60 diaphragmatic respiratory bursts per minute. Cine CT scanner impulses marking the timing for all images were transmitted to the polygraph with continuing signals of all objective measures, i.e., GH, SH, and DIA EMG activity, oxyhemoglobin saturation, and chest wall plethysmography. […]
This study quantified the effects of the serotonin antagonist, ritanserin, on the cross-sectional area of the upper airway and its dynamic changes during the respiratory cycle. […]

[3] = system: English bulldogs; assay: Diaphragm (DIA) EMG activity during wakefulness after i.v. serotonin antagonist
Protocol: (§1) Five diaphragm electromyographic (DIA EMG) electrodes were implanted in the costal musculature of the right hemidiaphragm 7 to 9 centimeters lateral to the xyphoid process. Three other electrodes were embedded into the right sternohyoid (SH) muscle and, three more were embedded into the right geniohyoid (GH) muscle. Both SH and GH muscles are readily palpable in the English bulldog.
(§2) All studies were conducted using an unrestrained dog, either housed within a well-ventilated, electronically shielded, clear Plexiglass™ recording chamber or seated atop a table in the recording room. In either case, an investigator remained with the dog throughout the study to observe the dog's head and neck movements and to document the behavioral state of the dog. EMG signals were band-pass filtered at 50 to 2,000 Hertz. DIA EMG signals were passed through an analog EKG blanker (CWE EKG blanker; CWE, Ardmore, Pa.) and then through a third-order Paynter filter (CWE MA) having a 100-millisecond time constant to obtain a moving average of the DIA EMG. Signals of the SH and GH EMG were also passed through Paynter filters with the same time constants (100 ms) to obtain moving averages of these signals. Oxyhemoglobin saturation was measured continuously with a Biox IIA oximeter attached to the dog's pinna. Signals for the GH EMG, GH moving average (MA), SH EMG, SH MA, DIA EMG, DIA MA, and oxyhemoglobin saturations were recorded polygraphically (10 millimeters per second) using a chart recorder with high frequency response, i.e., as much as 10 kHz (Gould ES1000; Gould Instruments, Cleveland, Ohio). Signals were also recorded on analog tape using an eight-channel FM tape recorder (A. R. Vetter, Roseburg, Pa.).
(§3) After obtaining baseline recordings of all variables for at least 5 minutes during quiet wakefulness and after obtaining recordings during the 5 minutes following administration of a saline control injection, 0.25 to 0.50 milligrams per kilogram body weight of one of the serotonin antagonists was administered to each dog through a peripheral intravenous line. All variables were continuously recorded. Injections were repeated every 6 minutes either until a total dose of 1 milligram per kilogram body weight had been administered or until the oxygen saturations fell below 85%. These limits were deemed to ensure the dogs' safety, based on an initial study using one dog. This dog, EBD-G was hypoxic at baseline and developed profound reductions in UAW muscle activity with desaturations to 75% after a total dose of 1.0 milligram per kilogram body weight of methysergide. The interval between repeated injections was selected to be 6 minutes to allow for 5 minute sampling periods for each dose. The duration of action of serotonin antagonists is known to be greater than 60 minutes (Bredberg et al., supra; Devaud et al., supra).
The effects of serotonin antagonists on diaphragm activity were similarly analyzed. Briefly, the measures of diaphragm activity were the peak amplitudes for all respiratory bursts in each condition. […] Acquisition of these measures has also been previously described (Hendricks et al., 1991, Am. Rev. Respir. Dis. 144:1112-1120). Mean values across all respiratory bursts of a 5 minute sample period were determined for each dog, and these values were used to perform repeated measures of ANOVA comparing baseline values with post-administration values.

[4] = system: English bulldogs; assay: Waking oxyhemoglobin saturation (SaO2) after i.v. serotonin antagonist; conditions: for mean SaO2: mean±SE
Protocol: as §2, §3
The effects of ritanserin and methysergide on oxyhemoglobin saturations were analyzed in a similar fashion; i.e., repeated measures of ANOVA for baseline and drug dose conditions. Oxyhemoglobin saturation was measured every 10 scans.

[5] = system: English bulldogs; assay: Upper airway dilator muscle (GH, SH) EMG activity during wakefulness after i.v. serotonin antagonist; conditions: mean±SE; for GH peak amplitude, mean: baseline 11.86±2.17; for SH amplitude: baseline 14.41±3.93
Text: Following the baseline sleep study to document sleep-disordered breathing, each dog underwent a surgical procedure for the implantation of recording electrodes. For this procedure, dogs were premedicated with 5 to 10 micrograms per kilogram body weight atropine sulfate intramuscularly. In the cases of two bulldogs experiencing severe sleep-disordered breathing, intubation and general anesthesia were thought to pose a significant risk for postoperative respiratory failure. These two dogs were therefore sedated only using 20 to 40 micrograms per kilogram body weight oxymorphone administered intramuscularly. The six remaining dogs were anesthetized initially with sodium thiopental (15 to 30 milligrams per kilogram body weight) administered intravenously. The dogs were intubated and maintained under general anesthesia using 0.5 to 2.5% (v/v) inhalational halothane throughout the procedure.
Recording electrodes were implanted for the study of diaphragm and upper airway dilator muscle activity. Electrodes were fashioned from 0.7 millimeter multi-stranded Teflon-coated stainless steel wire. The insulation was stripped from 5 to 8 millimeters at the proximal tip. The proximal tip of each electrode was implanted transcutaneously into the relevant musculature using methods described by Basmajian et al. (1962, J. Appl. Physiol. 17:839).
as §1
Two ground electrodes were embedded transcutaneously contacting both the occipital skull and dorsal neck musculature. Distal tips of all electrodes were soldered onto a 25-pin Winchester-type connector. Electrodes and the connector were secured to each dog with elastic adhesive dressings over the torso and neck.
as §2
The effects of serotonin antagonists on upper airway dilator muscle activity and breathing during wakefulness were assessed. Serotonin antagonists which were administered were methysergide maleate and ritanserin.
Ritanserin is a relatively selective serotonin antagonist at types 1C and 2 serotonin receptors (Devaud et al., 1992, J. Neurochem. 59:1459-1466). Ritanserin was selected for study on the basis that the IC and 2 subtypes of serotonin receptors appear to be involves in serotonin facilitation of hypoglossal motoneurons in vivo (Kugin et al., supra). […]

[6] = system: English bulldogs; assay: Direct observation of behavior after serotonin antagonists; conditions: i.v. during quiet wakefulness; several dogs
Text: The behavior of the dogs was observed directly throughout this study and for several hours following the last injection by one investigator seated adjacent the dog. The investigator documented both behavioral state and movement and helped the dog to maintain wakefulness throughout the study.

[7] = 0.50 mg/kg i.v., mean±SE, baseline ritanserin 17.63±2.79, methysergide 7.07±2.37
[8] = 0.50 mg/kg i.v., baseline ritanserin 92.1±0.6, methysergide 90.3±2.7
[9] = 0.50 mg/kg i.v., baseline ritanserin 14.41±3.93, methysergide 5.75±0.18

**Q.** What does the source list for `Cc1nc2sccn2c(=O)c1CCN1CCC(=C(c2ccc(F)cc2)c2ccc(F)cc2)CC1` [ritanserin]?
**A.** TI/Ttot (duty cycle ratio) ([1]; 0.25 mg/kg, mean±SE, six dogs, baseline 0.50±0.02, NS): 0.52 ± 0.02; TI (inspiratory time) ([1]; 0.25 mg/kg, mean±SE, six dogs, baseline 1.31±0.20, p 0.02): 1.03 ± 0.17 s; TE (expiratory time) ([1]; 0.25 mg/kg, mean±SE, six dogs, baseline 1.32±0.20, p 0.04): 1.00 ± 0.23 s; Ttot (total time of a respiratory burst) ([1]; 0.25 mg/kg, mean±SE, six dogs, baseline 2.60±0.30, p 0.03): 2.02 ± 0.30 s; GH peak amplitude suppressed by ([2]; mean values for the two dogs): 51.1±1.8%; chest wall respiratory movement amplitude reduced by ([2]; two dogs): 59.9%; upper airway parameters during expiration ([2]; two dogs): no significant changes; mean SaO2 after administration ([2]; two dogs, before 92.8±1.8): 86.2±4.7%; airway CSA during both stages of inspiration ([2]; two dogs, individual ANOVAs p<0.01): significant reduction; DIA peak amplitude as percentage of the baseline value ([3]; 0.25 mg/kg i.v.): 85.76±3.30%; DIA peak amplitude, mean ([3]; 0.25 mg/kg i.v., mean±SE, six dogs, baseline 17.63±2.79): 15.03±2.45 arbitrary units; percent suppression of DIA activity ([3]; 0.25 mg/kg i.v., mean±SE, quiet waking, dogs with GH data): 17.0±3.6%; DIA peak amplitude as percentage of the baseline value ([3]; 0.50 mg/kg i.v.): 95.22±5.81%; DIA peak amplitude, mean [3, 7]: 16.12±2.30 arbitrary units; DIA peak amplitude as percentage of the baseline value ([3]; 0.75 mg/kg i.v. cumulative): 87.33±5.18%; DIA peak amplitude, mean ([3]; 0.75 mg/kg i.v. cumulative, mean±SE, six dogs, baseline 17.63±2.79): 14.98±2.06 arbitrary units; mean SaO2 ([4]; 0.25 mg/kg i.v., baseline 92.1±0.6): 88.5±0.8%; mean SaO2 [4, 8]: 87.6±1.2%; mean SaO2 ([4]; 0.75 mg/kg i.v. cumulative, baseline 92.1±0.6): 88.6±0.5%; GH peak amplitude, mean ([5]; 0.25 mg/kg i.v., four dogs): 6.42±1.12 arbitrary units; SH amplitude ([5]; 0.25 mg/kg i.v.): 10.90±2.99 arbitrary units; percent suppression of GH activity ([5]; 0.25 mg/kg i.v., quiet waking): 40.0±6.5%; GH peak amplitude, mean ([5]; 0.50 mg/kg i.v. cumulative, four dogs): 7.23±2.01 arbitrary units; SH peak amplitude [5, 9]: 9.08±1.32 arbitrary units; GH peak amplitude, mean ([5]; 0.75 mg/kg i.v. cumulative, four dogs): 7.44±2.48 arbitrary units; SH amplitude ([5]; 0.75 mg/kg i.v. cumulative): 7.43±0.55 arbitrary units

**Q.** For `CC[C@@H](CO)NC(=O)[C@@H]1C=C2c3cccc4c3c(cn4C)C[C@H]2N(C)C1` [methysergide], which “behavior (head and neck movements, alertness)” value [6] is on record?
**A.** increase in staring behaviors

**Q.** And the “TE reduced by” value ([1]; 0.50 mg/kg, three dogs)?
**A.** 33.8%

**Q.** What about the “TI reduced by” value ([1]; 0.50 mg/kg, three dogs) of the same compound?
**A.** 12.7%

**Q.** What about the “Ttot reduced by” value ([1]; 0.50 mg/kg, three dogs) of the same compound?
**A.** 23.9%

**Q.** What about the “DIA peak amplitude as percentage of the baseline value” ([3]; 0.50 mg/kg i.v.) of the same compound?
**A.** 67.7%

**Q.** And the “DIA peak amplitude, mean” value [3, 7]?
**A.** 4.74±0.25 arbitrary units

**Q.** What about the “DIA peak amplitude as percentage of the baseline value” ([3]; 1.0 mg/kg i.v. cumulative) of the same compound?
**A.** 39.6%

**Q.** What about the “DIA peak amplitude, mean” value ([3]; 1.0 mg/kg i.v. cumulative, mean±SE, three dogs, baseline 7.07±2.37) of the same compound?
**A.** 2.80±1.48 arbitrary units

**Q.** And the “mean SaO2” value [4, 8]?
**A.** 86.6±2.0%

**Q.** And the “mean SaO2” value ([4]; 1.0 mg/kg i.v. cumulative, baseline 90.3±2.7)?
**A.** 85.6±0.9%

**Q.** And the “oxygen desaturations in dog EBD-G (hypoxic at baseline)” value ([4]; total dose 1.0 mg/kg i.v., single dog, initial study)?
**A.** 75%

**Q.** What about the SH peak amplitude [5, 9] of the same compound?
**A.** 3.83±0.28 arbitrary units

**Q.** And the SH peak amplitude ([5]; 1.00 mg/kg i.v. cumulative, four dogs, baseline 5.75±0.18)?
**A.** 2.77±0.38 arbitrary units
